Experiments:
[1] = Inhibition of human platelet lamellipodia formation on CRP-XL 1 umol/L preincubated for 4 mins followed by CRP-XL addition and measured after 45 mins (reference value: 69%); assay type: functional; settings: dose 1 µmol/L, time 49 min, at 1 µM
[2] = Inhibition of human platelet adhesion to immobilised CRP-XL at 1 umol/L preincubated for 4 mins followed by CRP-XL addition and measured after 45 mins relative to control; assay type: functional; settings: 49 min, dose 1 µmol/L
[3] = biological target: T1, Platelet glycoprotein VI (Homo sapiens, UniProt Q9HCN6); assay: Binding affinity to recombinant GP6 (unknown origin) at protein to compound ratio of 1 : 1 to 1 : 10 by 2D 15N-1H TROSY-HSQC NMR spectroscopy
T1 sequence (Q9HCN6 whole entry): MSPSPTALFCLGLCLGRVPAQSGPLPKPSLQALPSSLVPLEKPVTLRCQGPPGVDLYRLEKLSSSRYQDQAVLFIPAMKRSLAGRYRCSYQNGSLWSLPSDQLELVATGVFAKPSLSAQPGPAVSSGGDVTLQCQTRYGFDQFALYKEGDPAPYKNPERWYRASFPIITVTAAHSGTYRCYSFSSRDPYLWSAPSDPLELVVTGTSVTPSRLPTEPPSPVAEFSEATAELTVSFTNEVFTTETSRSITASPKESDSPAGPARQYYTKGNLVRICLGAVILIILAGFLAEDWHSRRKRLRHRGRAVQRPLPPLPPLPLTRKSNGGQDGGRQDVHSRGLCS

[4] = biological target: T2, Thromboxane A2 receptor (Homo sapiens) (UniProt P21731); assay: Modulation of TxA2 receptor in human platelet suspension assessed as lowest concentration that reduced U46619-induced platelet aggregation preincubated for 5 min followed by U46619 stimulation by light transmission aggregometry; assay type: tissue-based; settings: filed as modulator
T2 sequence (whole entry): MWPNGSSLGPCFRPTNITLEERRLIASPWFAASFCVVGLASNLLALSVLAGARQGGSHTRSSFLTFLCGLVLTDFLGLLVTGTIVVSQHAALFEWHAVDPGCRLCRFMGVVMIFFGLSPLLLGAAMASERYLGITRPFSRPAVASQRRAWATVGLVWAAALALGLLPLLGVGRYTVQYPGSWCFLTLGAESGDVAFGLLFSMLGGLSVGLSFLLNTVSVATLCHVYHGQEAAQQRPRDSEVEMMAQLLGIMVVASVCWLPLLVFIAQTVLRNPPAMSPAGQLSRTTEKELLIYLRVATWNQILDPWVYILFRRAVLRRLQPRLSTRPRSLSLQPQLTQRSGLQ

[5] = Inhibition of ADP-stimulated human platelet aggregation assessed as ADP light transmission at 50 uM preincubated for 5 min followed by ADP stimulation by light transmission aggregometry (reference value: 62 +/- 3%); assay type: functional; set-up: scale not given: the % may be the effect or the level left
[6] = Inhibition of collagen-induced platelet aggregation in human platelet suspension preincubated for 10 mins followed by collagen stimulation by light transmission-based assay; assay type: functional, tissue-based
[7] = Inhibition of ADP-induced platelet aggregation in rabbit platelet suspension preincubated for 10 mins followed by ADP stimulation by turbidimetric method; assay type: functional, tissue-based; settings: Oryctolagus cuniculus
[8] = Inhibition of PAF-induced platelet aggregation in rabbit platelet suspension preincubated for 10 mins followed by PAF stimulation by turbidimetric method; assay type: functional, tissue-based; settings: Oryctolagus cuniculus
[9] = Inhibition of arachidonic acid-induced platelet aggregation in rabbit platelet suspension preincubated for 10 mins followed by AA stimulation by turbidimetric method; assay type: functional, tissue-based; settings: Oryctolagus cuniculus
[10] = Inhibition of collagen-induced human platelet aggregation preincubated for 20 mins followed by collagen stimulation and measured for 10 mins by aggregometry; assay type: functional, tissue-based
[11] = Antagonist activity at GP6 in human platelet assessed as reduction in CRP-induced platelet-aggregation preincubated for 60 secs followed by […] by light transmission aggregometry
[12] = biological target: T1, Platelet glycoprotein VI; assay: Modulation of GP6 in human platelets assessed as reduction in convulxin-induced P-selectin expression preincubated for 20 mins followed by convulxin stimulation and measured after 1 min by Western blot analysis; assay type: tissue-based
[13] = Modulation of GP6 in porcine platelet-rich plasma assessed as reduction in convulxin-induced platelet aggregation; assay type: tissue-based; settings: Sus scrofa
[14] = Modulation of GP6/FcRgamma in human platelet-rich plasma assessed as reduction in convulxin-induced platelet aggregation
[15] = biological target: T3, Platelet glycoprotein VI (Homo sapiens) (UniProt Q9HCN6); settings: Plasma, filed as modulator, time 15.0 min
T3 sequence (whole entry): T1 sequence (Q9HCN6 whole entry)

[16] = biological target: T2, Thromboxane A2 receptor (Homo sapiens); assay: Inhibition of [3H]-U46619 binding to TxA2 receptor in human platelet suspension at 0.3 uM incubated for 30 mins by liquid scintillation counting method relative to control; assay type: tissue-based
[17] = biological target: T1, Platelet glycoprotein VI; assay: Binding affinity to human platelet lysate GP6 at 0.1 uM by surface plasmon resonance analysis; assay type: subcellular
[18] = Inhibition of collagen-induced platelet aggregation in human platelet suspension preincubated for 3 mins followed by collagen stimulation and measured after 6 mins by lumi-aggregometry; assay type: functional, tissue-based
[19] = biological target: T1, Platelet glycoprotein VI; assay: Binding affinity to human platelet lysate GP6 at 100 uM by surface plasmon resonance analysis; assay type: subcellular
[20] = Inhibition of ADP-induced platelet aggregation in human platelet suspension preincubated for 3 mins followed by […] and measured after 6 mins by lumi-aggregometry; assay type: functional, tissue-based
[21] = Inhibition of arachidonic acid-induced platelet aggregation in human platelet suspension preincubated for 3 mins followed by […] and measured after 6 mins by lumi-aggregometry; assay type: functional, tissue-based
[22] = biological target: T2, Thromboxane A2 receptor (Homo sapiens); assay: Inhibition of [3H]-U46619 binding to TxA2 receptor in human platelet suspension at 0.7 uM incubated for 30 mins by liquid scintillation counting method relative to control; assay type: tissue-based

Compound: C=CC(=O)N1CCC[C@@H](n2nc(-c3ccc(Oc4ccccc4)cc3)c3c(N)ncnc32)C1 [IBRUTINIB]
- inhibition (INH) [1]: 11%
- inhibition at 1 µM [2]: 70%

Compound: c1ccc(CCCCOc2ccc(-c3ccccc3-c3nn[nH]n3)cc2)cc1
- Kd [3]: 850 µM

Compound: CCCCC(=O)N(Cc1ccc(-c2ccccc2-c2nnn[nH]2)cc1)[C@H](C(=O)O)C(C)C
- MEC [4]: 50 µM
- Activity [5]: 53%
- Kd [3]: 100 µM

Compound: O=C(O)Cc1cccc(OCCCN(Cc2cccc(C(F)(F)F)c2Cl)CC(c2ccccc2)c2ccccc2)c1
- IC50 [6]: 0.03 µM

Compound: CCOc1nc2cccc(C(=O)O)c2n1Cc1ccc(-c2ccccc2-c2nnn[nH]2)cc1
- Activity [5]: 60%

Compound: C=C1C(=O)[C@@]23[C@H](O)C[C@@H]4C(C)(C)C(=O)CC[C@@]4(C)[C@@H]2CC[C@@H]1[C@H]3O [GLAUCOCALYXIN A]
- IC50 [7]: 4.4 µM
- IC50 [8]: 13.7 µM
- IC50 [9]: 14.1 µM

Compound: C/C(O)=C(\C#N)C(=O)Nc1cc(Br)ccc1Br
- IC50 [10]: 2.8 µM

Compound: c1ccc(-c2cccc(-c3nn[nH]n3)c2)cc1
- Kd [3]: 80 µM

Compound: CN(C)CCCSc1ccccc1NC(=O)/C=C/c1ccccc1 [CINANSERIN]
- IC50 [11]: 35 µM

Compound: Cc1ccccc1-c1nn[nH]n1
- Kd [3]: 1100 µM

Compound: Cc1cccc(Nc2nc(N[C@@H]3CCCC[C@@H]3N)ncc2C(N)=O)c1
- IC50 [12]: 0.048 µM
- IC50 [13]: 0.35 µM
- IC50 [14]: 2.5 µM

Compound: c1ccc(-c2ccccc2-c2nn[nH]n2)cc1
- Kd [3]: 360 µM

Compound: O=S(=O)(c1ccccc1)N(CC(F)(F)F)c1ccc(C(O)(C(F)(F)F)C(F)(F)F)cc1 [T091317]
- IC50 [6]: > 0.05 µM

Compound: O=C(O)c1ccccc1-c1ccccc1
- Kd [3]: 1500 µM

Compound: CCCCc1nc(Cl)c(C=O)n1Cc1ccc(-c2ccccc2-c2nn[nH]n2)cc1
- MEC [15]: 500 µM

Compound: CCCc1nc2c(C)cc(-c3nc4ccccc4n3C)cc2n1Cc1ccc(-c2ccccc2C(=O)O)cc1
- MEC [4]: 5 µM
- Activity [5]: 48%

Compound: CCCCC1=NC2(CCCC2)C(=O)N1Cc1ccc(-c2ccccc2-c2nnn[nH]2)cc1 [IRBESARTAN]
- MEC [4]: 0.5 µM
- Activity [5]: 38%
- inhibition [16]: 50%

Compound: NCCCC(=O)O [GAMMA-AMINOBUTYRIC ACID]
- Kd [17]: 0.0411 µM

Compound: C=CCc1ccc(O)c(-c2ccc(O)c(CC=C)c2)c1 [HONOKIOL]
- IC50 [18]: 0.6 µM
- Kd [19]: 289 µM

Compound: c1ccc(CCOc2ccc(-c3ccccc3-c3nn[nH]n3)cc2)cc1
- Kd [3]: 52 µM

Compound: CC(C)=CCC/C(C)=C/C=C/C(C)=C/C=C/C(C)=C/C=C/C=C(C)/C=C/C=C(C)/C=C/C=C(\C)CCC=C(C)C [LYCOPENE]
- IC50 [20]: 6.2 µM
- IC50 [18]: 5.8 µM
- IC50 [21]: 6.8 µM

Compound: CCCc1nc(C(C)(C)O)c(C(=O)O)n1Cc1ccc(-c2ccccc2-c2nnn[nH]2)cc1 [OLMESARTAN]
- Kd [3]: 300 µM

Compound: CCCCc1nc(Cl)c(CO)n1Cc1ccc(-c2ccccc2-c2nnn[nH]2)cc1 [LOSARTAN]
- inhibition [22]: 50%
- MEC [4]: 0.5 µM
- Activity [5]: 39%
- MEC [15]: 500 µM

Compound: H-YSDTDWLYFSTS-OH
- Kd [3]: 57 µM
